Experimental data taken from ChEMBL document CHEMBL1926531, “Butamben derivatives enhance BMP-2-stimulated commitment of C2C12 cells into osteoblasts with induction of voltage-gated potassium channel expression” (Bioorg Med Chem Lett, 2011).
The source made the active and inactive calls. The rule behind the calls is not given here.

Tests used:
[1] = target: T1, Bone morphogenetic protein 2 (Homo sapiens) (UniProt P12643); assay: Increase in BMP2-mediated osteoblastogenesis in mouse C2C12 cells assessed as increase in BMP9 mRNA level at 10 uM by SYBR-based RT-PCR; assay type: cell-based
T1 sequence (whole entry): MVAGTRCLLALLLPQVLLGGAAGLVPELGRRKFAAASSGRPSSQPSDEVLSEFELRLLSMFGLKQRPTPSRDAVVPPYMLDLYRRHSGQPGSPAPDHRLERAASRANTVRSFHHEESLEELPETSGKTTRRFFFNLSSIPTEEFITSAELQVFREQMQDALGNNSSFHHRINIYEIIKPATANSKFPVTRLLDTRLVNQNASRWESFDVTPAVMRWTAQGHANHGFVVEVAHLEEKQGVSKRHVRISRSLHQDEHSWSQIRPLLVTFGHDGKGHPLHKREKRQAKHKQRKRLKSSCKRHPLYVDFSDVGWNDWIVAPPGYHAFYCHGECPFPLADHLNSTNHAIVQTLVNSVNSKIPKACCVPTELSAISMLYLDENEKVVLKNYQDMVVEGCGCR

[2] = target: T1, Bone morphogenetic protein 2 (Homo sapiens); assay: Increase in BMP2-mediated osteoblastogenesis in mouse C2C12 cells assessed as increase in BMP6 mRNA level at 10 uM by SYBR-based RT-PCR; assay type: cell-based
[3] = target: T1, Bone morphogenetic protein 2 (Homo sapiens); assay: Increase in BMP2-mediated osteoblastogenesis in mouse C2C12 cells assessed as increase in OCN mRNA level at 10 uM by SYBR-based RT-PCR; assay type: cell-based
[4] = target: T1, Bone morphogenetic protein 2 (Homo sapiens); assay: Increase in BMP2-mediated osteoblastogenesis in mouse C2C12 cells assessed as increase in BMP7 mRNA level at 10 uM by SYBR-based RT-PCR; assay type: cell-based
[5] = target: T1, Bone morphogenetic protein 2 (Homo sapiens); assay: Increase in BMP2-mediated osteoblastogenesis in mouse C2C12 cells assessed as increase in BMP4 mRNA level at 10 uM by SYBR-based RT-PCR; assay type: cell-based
C2C12 = assay: Induction of alkaline phosphatase activity in mouse C2C12 cells; assay type: cell-based
[6] = target: T1, Bone morphogenetic protein 2 (Homo sapiens); assay: Increase in human recombinant BMP2-mediated osteoblastogenesis in mouse C2C12 cells assessed as induction of alkaline phosphatase activity after 6 days; assay type: cell-based
[7] = target: T1, Bone morphogenetic protein 2 (Homo sapiens); assay: Increase in BMP2-mediated osteoblastogenesis assessed as increase in BMP2 protein level in mouse C2C12 cells at 10 uM by Western blot analysis; assay type: cell-based
[8] = target: T1, Bone morphogenetic protein 2 (Homo sapiens); assay: Increase in BMP2-mediated osteoblastogenesis assessed as increase in Kv4.2 mRNA expression at 10 uM after 6 hrs after 3 days by RT-PCR analysis
[9] = target: T1, Bone morphogenetic protein 2 (Homo sapiens); assay: Increase in BMP2-mediated osteoblastogenesis assessed as increase in phosphorylated of Smad level in nucleus at 10 uM after 6 hrs by Western blot analysis
[10] = target: T1, Bone morphogenetic protein 2 (Homo sapiens); assay: Increase in human recombinant BMP2-mediated osteoblastogenesis assessed as increase in alkaline phosphatase mRNA expression in mouse C2C12 cells at 10 uM treated with BMP2 antagonist noggin on day 4 post compound challenge measured after 6 days by SYBR-based RT-PCR; assay type: functional, cell-based
[11] = target: T1, Bone morphogenetic protein 2 (Homo sapiens); assay: Increase in BMP2-mediated osteoblastogenesis assessed as increase in BMP7 protein level in mouse C2C12 cells at 10 uM by Western blot analysis; assay type: cell-based
[12] = target: T1, Bone morphogenetic protein 2 (Homo sapiens); assay: Increase in human recombinant BMP2-mediated osteoblastogenesis assessed as increase in alkaline phosphatase mRNA expression in mouse C2C12 at 10 uM co-treated with BMP2 antagonist noggin on day 3 measured after 6 days by SYBR-based RT-PCR; assay type: functional
[13] = target: T1, Bone morphogenetic protein 2 (Homo sapiens); assay: Increase in BMP2-mediated osteoblastogenesis assessed as increase in Kv1.1 mRNA expression at 10 uM by RT-PCR analysis
[14] = target: T1, Bone morphogenetic protein 2 (Homo sapiens); assay: Increase in human recombinant BMP2-mediated osteoblastogenesis assessed as increase in alkaline phosphatase activity in mouse C2C12 cells at 10 uM treated with BMP2 antagonist on day 4 post compound challenge measured after 6 days; assay type: functional, cell-based
[15] = target: T1, Bone morphogenetic protein 2 (Homo sapiens); assay: Increase in human recombinant BMP2-mediated osteoblastogenesis assessed as increase in alkaline phosphatase activity in mouse C2C12 at 10 uM co-treated with BMP2 antagonist noggin on day 3 measured after 6 days; assay type: functional
[16] = target: T1, Bone morphogenetic protein 2 (Homo sapiens); assay: Increase in BMP2-mediated osteoblastogenesis assessed as increase in phosphorylation of Smad at 10 uM by Western blot analysis
[17] = target: T1, Bone morphogenetic protein 2 (Homo sapiens); assay: Increase in BMP2-mediated osteoblastogenesis assessed as increase in Kv4.3 mRNA expression at 10 uM after 6 hrs after 3 days by RT-PCR analysis
[18] = target: T1, Bone morphogenetic protein 2 (Homo sapiens); assay: Increase in BMP2-mediated osteoblastogenesis assessed as increase in Kv1.5 mRNA expression at 10 uM after 3 days by RT-PCR analysis
[19] = target: T1, Bone morphogenetic protein 2 (Homo sapiens); assay: Increase in BMP2-mediated osteoblastogenesis assessed as increase in nuclear translocation of Smad at 10 uM by Western blot analysis

Structure (SMILES) | Activity [1] | Activity [2] | Activity [3] | Activity [4] | Activity [5] | Activity (C2C12) | Activity [6] | Activity [7] | Activity [8] | Activity [9] | Activity [10] | Activity [11] | Activity [12] | Activity [13] | Activity [14] | Activity [15] | Activity [16] | Activity [17] | Activity [18] | Activity [19]
CC(C)OC(=O)c1ccc(N)cc1 | Active | Active | Active | Active | Active | inactive | Dose-dependent effect |  |  |  |  |  |  |  |  |  |  |  |  | 
CCCCOC(=O)c1ccc(NC(C)=O)cc1 | Active | Active | Active | Active | Active | inactive | Dose-dependent effect | Active | Active | Active | inactive | Active | inactive | Active | inactive | inactive | Active | Active | Active | Active
COC(=O)c1ccc(N)cc1 | Active | Active | Active | Active | Active | inactive | Dose-dependent effect |  |  |  |  |  |  |  |  |  |  |  |  | 
CCCCOC(=O)c1ccc(N)cc1 | Active | Active | Active | Active | Active | inactive | Dose-dependent effect |  |  |  |  |  |  |  |  |  |  |  |  | 
